Data as given in US4710572A, “Histamine H1 antagonists” (American Home Products Corporation, priority 1986, dated 1987).
pIC50: −log10 of the molar value. Read-outs that look alike come from different tables or passages of the source.

How the values were obtained:
histamine H1 [1] = target: T1, histamine H1 (Cavia porcellus, UniProt P31389); assay: Drugs vs. histamine at 1 × 10^-6 M in guinea pig terminal ileum, comparison with -383 analogues; assay type: cell-based; set-up: A section of terminal ileum was removed and suspended in aerated 37° C; Tyrodes solution; from tissue; host or cells: terminal ileum of male Hartley guinea pigs
Source text: Tyrodes solution. […] Tissues were washed several times before repeating the procedure for the next concentration. A different set of 4 tissues was used for each drug.

[2] = Modified Geller-Seifter experimentally-induced conflict test; settings: in vivo
[3] = Conditioned avoidance (shelf-jump), Herman et al.; assay type: in vivo; settings: 40 mg/kg
histamine H1 [4] = target: T1, histamine H1; assay: cell-based
Protocol: Subsequently, additional characterization of the compound herein exemplified was carried out in which complete histamine dose response curves were constructed first in the absence of test drug and then repeated in the presence of test drug at a specified concentration. A single experiment of this type allowed calculation of a pKB value from the rightward shift induced by the drug in the histaminic dose response curve, while three such experiments (at three different drug concentrations) allowed calculation of a pA2 value.

histamine H1 [5] = target: T1, histamine H1; assay: Histamine-induced contraction of isolated guinea pig ileum, single drug concentration; assay type: cell-based; set-up: A section of terminal ileum was removed and suspended in aerated 37° C; Tyrodes solution; from tissue; host or cells: terminal ileum of male Hartley guinea pigs; settings: histamine 1×10^-7 M; test drug 1×10^-6 M
Protocol: Fresh segments of terminal ileum immediately proximal to Peyer's patch, obtained from male Buckshire guinea pigs, were suspended in 37° C. Tyrode's solution in a tissue bath and aerated. The tissue segments were placed under one gram tension and allowed to equilibrate for one hour. Histamine was added to each tissue bath to a final concentration of 1×10^-7 M. The response was noted as grams tension. Test drug was added, in the presence of histamine, to each bath to a final concentration of 1×10^-6 M. The change in grams tension was noted and the percent reduction in grams tension calculated.

[6] = test system: histamine-induced deaths in guinea pigs; assay: Inhibition of histamine-induced deaths in guinea pigs; assay type: in vivo, guinea pig
Protocol: The compound exemplified herein, after a one hour pretreatment period, inhibited histamine-induced deaths in guinea pigs over the range of 1-5 mg/kg, with 100 percent effectiveness at the latter dose. At 18 hours post drug treatment the test compound retained 40 percent effectiveness at 10 mg/kg.

[7] = test system: histamine-induced changes in bronchopulmonary parameters; assay: Reversal of histamine-induced changes in bronchopulmonary parameters in the anesthetized guinea pig; assay type: in vivo
[8] = test system: histamine-induced paw edema formation; assay: Histamine-induced paw edema formation; settings: in vivo
[9] = test system: limbic D2 dopamine receptor; assay: Limbic D2 dopamine receptor binding (Fields et al.); settings: at 1 μM
[10] = Confinement motor activity, Tedeschi et al.; assay type: in vivo; settings: 5 and 10 mg/kg i.p.
[11] = test system: histamine-induced wheal formation in guinea pig skin; assay: Histamine-induced wheal formation in guinea pig skin; assay type: in vivo
[12] = guinea pig ileum, histamine 1 × 10^-6 M, calculated from the table data, read-out: IC50 (inhibitory concentration50)

T1 sequence (P31389 whole entry): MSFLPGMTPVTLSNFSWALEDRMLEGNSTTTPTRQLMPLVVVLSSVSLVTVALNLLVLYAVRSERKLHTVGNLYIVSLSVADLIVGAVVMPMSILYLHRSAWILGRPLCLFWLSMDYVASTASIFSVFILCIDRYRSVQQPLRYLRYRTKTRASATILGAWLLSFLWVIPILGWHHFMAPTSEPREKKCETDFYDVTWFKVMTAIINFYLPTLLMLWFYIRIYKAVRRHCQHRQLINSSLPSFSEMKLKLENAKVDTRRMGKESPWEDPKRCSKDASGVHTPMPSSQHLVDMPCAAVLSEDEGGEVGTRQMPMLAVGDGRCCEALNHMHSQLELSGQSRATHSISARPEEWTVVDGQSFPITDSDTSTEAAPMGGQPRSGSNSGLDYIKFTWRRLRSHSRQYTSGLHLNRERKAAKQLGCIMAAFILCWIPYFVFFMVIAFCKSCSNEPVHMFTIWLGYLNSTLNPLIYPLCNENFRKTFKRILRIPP

Structure (SMILES) | pIC50 (histamine H1 [1]; [12]) | effect in modified Geller-Seifter conflict test [2] | conditioned avoidance (shelf-jump) activity [3] | Kb (histamine H1 [4]) [nM] | type of antagonism (shift of histamine dose response curve) (histamine H1 [4]; isolated guinea pig ileum) | potency relative to terfenadine (histamine H1 [4]; vs terfenadine) | antagonist action against the histamine-induced contractile response in the isolated guinea pig ileum (histamine H1 [5]) | effectiveness in inhibition of histamine-induced deaths ([6]; 5 mg/kg, one hour pretreatment) [%] | effectiveness in inhibition of histamine-induced deaths ([6]; 10 mg/kg, 18 hours post drug treatment) [%] | reversal of histamine-induced changes in bronchopulmonary parameters [7] | inhibition of histamine-induced paw edema formation [8] | inhibition of limbic D2 dopamine receptor binding [9] [%] | sedative effect in confinement motor activity [10] | pIC50 (histamine H1 [1]) | potency relative to the -383 dichloro compound (histamine H1 [1]; ratio of IC50's) | potency relative to the -383 monochloro compound (histamine H1 [1]; ratio of IC50's) [times] | effectiveness against wheal formation ([11]; 1.7 mg/kg, 18 hour pretreatment) | suppression of wheal formation ([11]; highest dose (2.1 mg/kg), one hour pretreatment)
Cn1c(=O)c2c(ncn2CCCCN2CCN(C(c3ccc(Cl)cc3)c3ccc(Cl)cc3)CC2)n(C)c1=O [-383 Dichloro compound, 7-[4-[4-(4',4"-dichlorodiphenylmethyl)piperazinyl-(1)]-n-butyl]theophylline, reference compound] | 6.10 | – | – | – | – | – | – | – | – | – | – | – | – | – | – | – | – | –
Cn1c(=O)c2c(ncn2CCCN2CCN(C(c3ccccc3)c3ccc(Cl)cc3)CC2)n(C)c1=O (stereo not shown) [-383 Monochloro compound, 7-[3-[4-p-chlorobenzhydrylpiperazinyl-(1)]-n-propyl]-theophylline, reference compound] | 6.43 | – | – | – | – | – | – | – | – | – | – | – | – | – | – | – | – | –
Cn1c(=O)c2c(ncn2CCCN2CCN(C(c3ccc(F)cc3)c3ccc(F)cc3)CC2)n(C)c1=O [Difluoro compound, 7-[3-[4-bis(4-fluorophenyl)methyl]-1-piperazinyl]propyl-3,7-dihydro-1,3-dimethyl-1H-purine-2,6-dione] | – | mild stimulation | inactive | 6.31 | parallel rightward shifts with no decrease in the maximum response | about five times as potent as terfenadine | potent, competitive antagonist action | 100 | 40 | reversal of histamine-induced changes in bronchopulmonary parameters | inhibition of histamine-induced paw edema formation | 43 | no sedative effect | 7.42 | about 21 times | 10 | retained maximal effectiveness | Maximum suppression of wheal formation
